This note sets out measurements from patent US20260125647A1, “AGE-MODULATING COMPOUNDS AND METHODS FOR MAKING AGE-MODULATED CELLS” (MEMORIAL SLOAN-KETTERING CANCER CENTER, priority 2023, published 2026).

The test system of assay [1] is fetal human dermal fibroblasts (HDF-f). The assay can be described thus: RNA-seq RNAge validation of age inducers in fetal fibroblasts. The class given is cell-based. As to conditions: 24 h, relative to DMSO; for RNAge score (relative transcriptional age): Alvocidib 10 μM, 5-Iodotubercin 10 μM, Mitoxantrone 1.1 μM. As to the method:
Fibroblast maintenance and culture. Fibroblasts were maintained in DMEM-F12 containing GlutaMAX,15% heat inactivated FBS and 1× Pen/Strep and passaged using Trypsin. For validation of […] aging score by RNA-seq old (GM04204; Coriell) or young (HDF-f; […] Compounds for experimental validation of […]-based score. All validation experiments were performed after 24 h of compound treatment. For rejuvenation experiments in fibroblasts Mocetinostat (10 μM; Selleck […]), Resveratrol (0.37 μM; Selleck […]) and Radicicol (1.1 μM; Tocris 1589), DMSO (1:1000) and EtOH (1:1000; vehicle control for Radicicol) were applied to old primary fibroblasts (Coriell GM4204). Age induction experiments in young fibroblasts (HDF-f; ScienCell #2300) were performed with 5-Iodotubercin (10 μM; Selleck […]), Alvocidib (10 μM; Selleck […]) and Mitoxantrone (1.1 μM; Selleck […]) with DMSO (1:1000) used as a control. Compounds used for age induction experiments in PSC-derived neurons were: […] Selleck […]) with DMSO (1:1000) used as a control. RNA Extraction. Cell were harvested, lysed, and stored in Trizol (Life Technologies) until further processing. For primary frontal cortex or substantia nigra a total of 10 mg of brain tissue from was lysed in Trizol aided by a tissue dounce. For experimental validation […] compounds RNA was extracted by the core using […] Micro Kit (QIAGEN 1071023). In all other cases RNA was extracted using the Zymo Direct-zol RNA Microprep Kit according to the manufacturer's instructions. RNA-seq analysis. Reads were aligned to the hg19 Human transcripts using STAR (version 2.5.21b) using default parameters and resulting bam files were sorted and indexed using samtools. Gene counts were obtained using featureCounts (version 1.4.3) from sorted bam files using uniquely mapped reads. Genes with no expression counts in any sample were discarded. Differential gene expression analysis was performed using DESeq2 R package that normalize gene count data to transcription per million (TPM), and then detect differentially expressed genes (DEG) between Young and Old groups with ([…] score calculation. The aging score is applied on a gene expression test data where two conditions are compared for expression changes in the aging signature, group1 has n samples and group2 has m samples. For each gene in a tissue specific marker set Ĝk, we can calculate t-statistic between two groups based on Welch's two-sample t test as follow: where the normalizing factor Nk is the number of overlapping genes between the test dataset and Ĝk. The aging score, Aging scorek, represents the overall magnitude of expression difference between two sample groups based on the expression trends. This score is calculated using the tissue-specific aging marker set Mk. It indicates the aging difference between the two groups as well as distinguishes which group is older. To mitigate the influence of a small number of markers with large changes gene expression between group1 and group2 of the test data (i.e. large t-score values), we introduced the “Percentage score” as a measure of agreement between the expression trends of the aging markers and the given dataset. The calculation of the Percentage score involves the product of each gene between Tk and Mk: Ai=ti×Li, where i∈Ĝk. A positive Ai indicates a consistent expression change of gene i in both the aging signature and in the comparison between group1 and group2 in the test dataset. Conversely, a negative Ai indicates an opposite expression trend. Therefore, the “Percentage score” is defined as: […]

Another assay has as its system HDF fibroblasts. The assay can be described thus: Hallmarks of age by high content microscopy in fibroblasts. The class given is cell-based, human. The note with it: 24 h. As to the method: Compounds for experimental validation of L1000-based score. All validation experiments were performed after 24 h of compound treatment. For rejuvenation experiments in fibroblasts Mocetinostat (10 μM; Selleck S1396), Resveratrol (0.37 μM; Selleck S1396) and Radicicol (1.1 μM; Tocris 1589), DMSO (1:1000) and EtOH (1:1000; vehicle control for Radicicol) were applied to old primary fibroblasts (Coriell GM4204). Age induction experiments in young fibroblasts (HDF-f; ScienCell #2300) were performed with 5-Iodotubercin (10 μM; Selleck S8314), Alvocidib (10 μM; Selleck S1230) and Mitoxantrone (1.1 μM; Selleck S2485) with DMSO (1:1000) used as a control. Compounds used for age induction experiments in PSC-derived neurons were: Fludarabine (10 μM; Selleck S1491) Vinorelbine (10 μM; sc-205885) and AGK-2 (0.04 μM; Selleck S7577) with DMSO (1:1000) used as a control.
Assaying Hallmarks of Age by high content microscopy. HDF fibroblasts were plated at a density of 4500/cm^2 and cultured for 48 h before drug treatment. Neurons were plated at a density of 100,000/cm^2 and cultured for 12 days before the application of candidate age inducers. After 24 h of treatment culture wells were washed 2× in PBS then fixed with 4% paraformaldehyde. For immunocytochemistry cells were permeabilized in PBS+0.3% Triton and blocked in 5% normal goat serum. All antibody primary incubations were performed overnight at 4 degrees and secondary antibodies at RT for 1h. Primary antibodies used in this study were: BAG3 (abcam; ab47124), CAV1 (Thermo; MA3-600), H3K9me3 (abcam; ab176916), LAP2 (BD Bioscience; 611000), p21 (CST; 2947), yH2AX (EMD Millipore; 05-636). Immunocytochemistry images were acquired using an Operetta (PerkinElmer, Waltham, MA) microscope and quantified using the harmony high content analysis software. For both fibroblasts and neurons 4 independent batches of cells were assayed in triplicate (n=12). Fluorescence intensity was normalized to DMSO, and ordinary one-way ANOVA used to compare test conditions to the DMSO control (Prism 9.5.1). […]

A further assay has as its system PSC-derived neurons. The assay can be described thus: RNA-seq RNAge validation of age inducers in PSC-derived neurons. The format is cell-based, human. As to conditions: 24 h, relative to DMSO, Vinorelbine 10 μM, AGK-2 0.04 μM. As for the experimental part: Generation of human cortical neurons. Cortical neurons were generated by directed differentiation of human embryonic stem cells (H9; WA-09) maintained in E8 on vitronectin coated plates. […] After 24 h the E8 medium was replaced with E6 containing SB431542 (10 μM), LDN193189 (100 nM) and XAV939 ([…]). After three days the XAV939 was removed from the differentiation media and cells were cultured for an additional seven days in E6 containing SB431542 (10 μM), LDN193189 (100 nM). The neuroepithelium was maintained for an additional 10 days in neurobasal supplemented with N2 and B27. Media was changed daily throughout the differentiation. At DIV 20 the cultures were dissociated using Accutase to generate a single cell suspension and plated out for subsequent experiments in Neurobasal medium supplemented with B27, L-glutamine, BDNF, CAMP, ascorbic acid and GDNF (neural maintenance media). DAPT was also added to the culture medium from DIV20 to DIV30. Compounds for experimental validation of […]-based score. […] Reads were aligned to the hg19 Human transcripts using STAR (version 2.5.21b) using default parameters and resulting bam files were sorted and indexed using samtools. Gene counts were obtained using featureCounts (version 1.4.3) from sorted bam files using uniquely mapped reads. […] This score is calculated using the tissue-specific aging marker set Mk. […]

Assay [2] deals with old primary fibroblasts (Coriell GM04204). The assay can be described thus: RNA-seq RNAge validation of rejuvenating compounds in old primary fibroblasts. The format is cell-based, human. The note with it: 0.37 μM, 24 h. As for the experimental part: Fibroblast maintenance and culture. Fibroblasts were maintained in DMEM-F12 containing GlutaMAX,15% heat inactivated FBS and 1× Pen/Strep and passaged using Trypsin. For validation of […] aging score by RNA-seq old (GM04204; Coriell) or young (HDF-f; […] Compounds for experimental validation of […]-based score. All validation experiments were performed after 24 h of compound treatment. For rejuvenation experiments in fibroblasts Mocetinostat (10 μM; Selleck […]), Resveratrol (0.37 μM; Selleck […]) and Radicicol (1.1 μM; Tocris 1589), DMSO (1:1000) and EtOH (1:1000; vehicle control for Radicicol) were applied to old primary fibroblasts (Coriell GM4204). Age induction experiments in young fibroblasts (HDF-f; ScienCell #2300) were performed with 5-Iodotubercin (10 μM; Selleck […]), Alvocidib (10 μM; Selleck […]) and Mitoxantrone (1.1 μM; Selleck […]) with DMSO (1:1000) used as a control. Compounds used for age induction experiments in PSC-derived neurons were: […] Selleck […]) with DMSO (1:1000) used as a control. RNA Extraction. […] Reads were aligned to the hg19 Human transcripts using STAR (version 2.5.21b) using default parameters and resulting bam files were sorted and indexed using samtools. Gene counts were obtained using featureCounts (version 1.4.3) from sorted bam files using uniquely mapped reads. […] This score is calculated using the tissue-specific aging marker set Mk. […]

Take `Nc1ncnc2c1c(I)cn2[C@@H]1O[C@H](CO)[C@@H](O)[C@H]1O` [5-iodotubercin]: in assay [1], the “pattern of induction of the RNAge subscores” value (shortened to “pattern”) was “very similar pattern of induction” and the “RNAge score (relative transcriptional age)” value is “increased”. In the assay on HDF fibroblasts, the nuclear area result was “increase” and the nuclear roundness result is “loss”. For the same molecule, in the assay with HDF fibroblasts (relative to DMSO), the BAG3 fluorescence intensity entry is “decreased” and the LAP2 fluorescence intensity entry was “loss”.
`N#C/C(=C\c1ccc(-c2cc(Cl)ccc2Cl)o1)C(=O)Nc1cccc2ncccc12` [AGK-2]: in the assay with PSC-derived neurons, the “RNAge score / aging scores across the aging signatures” value is on record as “no obvious transcriptional effect or impact”.
Turning to `CN1CC[C@H](c2c(O)cc(O)c3c(=O)cc(-c4ccccc4Cl)oc23)[C@H](O)C1` [Alvocidib], in assay [1], the “pattern” value is given as “very similar pattern of induction” and the “RNAge score (relative transcriptional age)” value is on record as “increased”. Further, in the assay on HDF fibroblasts, the nuclear area result is recorded as “increase” and the nuclear roundness result is “loss”. For the same molecule, in the assay on HDF fibroblasts (relative to DMSO), the BAG3 fluorescence intensity entry is “decreased” and the LAP2 fluorescence intensity entry is reported as “loss”.
For `O=C1c2c(O)ccc(O)c2C(=O)c2c(NCCNCCO)ccc(NCCNCCO)c21` [Mitoxantrone], in assay [1], the “pattern” value is “only showed induced aging in the ‘Pan’ and ‘pF’ aging categories”; the “RNAge score (relative transcriptional age)” value is listed as “increased”. Moreover, the nuclear roundness entry with HDF fibroblasts is given as “loss”. In the assay with HDF fibroblasts (relative to DMSO), the BAG3 fluorescence intensity result is given as “decreased”, the H3K9me3 immunoreactivity result was “decreased”, the LAP2 fluorescence intensity result was “loss” and the p21 immunoreactivity result is “increased”. Besides, the γH2AX immunoreactivity result in the assay with HDF fibroblasts (relative to DMSO) is reported as “increased”.
Take `Oc1ccc(C=Cc2cc(O)cc(O)c2)cc1` [Resveratrol]: in assay [2], the “fibroblast aging score bubble size (percent of genes that change in the expected direction)” value was “very small bubble size”.
`CCC1=C[C@@H]2CN(C1)Cc1c([nH]c3ccccc13)[C@@](C(=O)OC)(c1cc3c(cc1OC)N(C)[C@H]1[C@@](O)(C(=O)OC)[C@H](OC(C)=O)[C@]4(CC)C=CCN5CC[C@]31[C@@H]54)C2` [Vinorelbine]: in the assay with PSC-derived neurons, the “RNAge score / aging scores across the aging signatures” value is reported as “only a slight, albeit consistent, induction”.
